From patent US11690902B2 (priority 2018, dated 2023) come the findings set out here.

“Also recorded” adds a separate entry of the source.

Experiment [1] deals with splenocytes from tgHLA-DR3 mice. The conditions noted are these: in vivo; for # of mice responding: mouse.
For experiment [2], the system named is human PBMCs of individuals naturally exposed to C. burnetii. Type of experiment: cell-based.
A further experiment deals with T1, DRB1*0301 (Homo sapiens, UniProt P01903+P01911, A100K/A102G/A103R/A169T/F55Y/I96L/K41T/L162R/M171V/P40S/Q125H/Q178H/Q39Y/R42S/S66N/T106N/T262R/W38E/Y61H).
T1 construct: purchased Benaroya Institute, Seattle, Wash
The experiment can be described thus: HLA class II competition binding assay, DRB1*0301. The conditions noted are these: peptides immunogenic in tgHLA-DR3 mice.

For the sequence IDHLQQMTRQQVAMQTHK [p36], in experiment [1], the “SFU, Mouse 1/3” value is listed as 52; the “SFU, Mouse 2/3” value is given as 55; the “SFU, Mouse 3/3” value came to 0; the “SI (stimulation index), Mouse 1/3” value amounted to 3.44. Also, in experiment [1], the “SI (stimulation index), Mouse 2/3” value is given as 3.86; the “SI (stimulation index), Mouse 3/3” value stood at 0.86; the “# of mice responding” value came out at 2. Also, the “Human immunoreactive in at least one IGRA+ donor (category)” value (from here on “Human immunoreactive”) in experiment [2] is “at least one IGRA + donor”. For the same sequence, the “Binding to DRB1*0301 in vitro” value with DRB1*0301 was “all except one (p36) also showed binding”.

As to KDDILEAVANMSVMDV [p3], in experiment [2], the “Donors recognizing peptides recognized only within group C” value was “single” and the “Human immunoreactive” value is on record as “at least one IGRA + donor”.

On to AIYFIGWYANLAHIKLGIS [p9], for which the “Recognition of HLA class II peptide by any subject” value (shortened to “Recognition of HLA class II peptide”) in experiment [2] is listed as “not recognized by any subject”.

RLGFMSFFTKAVVEALKRF [p22]: the “Highly antigenic / highly reactive peptide in the human cohort” value in experiment [2] was “highly reactive; also recorded: highly antigenic”.

Regarding VFNITLQKVMAPELPVL [p35], the “Recognition of HLA class II peptide” value in experiment [2] was “not recognized by any subject”.

With ISLLVFKNSHRVQLWAK [p28], in experiment [1], the “SFU, Mouse 1/3” value stood at 63; the “SFU, Mouse 2/3” value is listed as 54; the “SFU, Mouse 3/3” value was determined as 41; the “SI (stimulation index), Mouse 1/3” value amounted to 3.76. Moreover, in experiment [1], the “SI (stimulation index), Mouse 2/3” value is recorded as 3.79; the “SI (stimulation index), Mouse 3/3” value was determined as 2.63; the “# of mice responding” value turned out to be 2. Also, in experiment [2], the “Donors recognizing peptides recognized solely by past asymptomatic subjects” value was 1/33 and the “Human immunoreactive” value was “at least one IGRA + donor”.

Consider DGRLEQLNSQNQQLQ [p33], for which, in experiment [2], the “Donors recognizing peptides recognized only within group C” value was “single”, the “Donors recognizing peptides recognized solely by past asymptomatic subjects” value was 1/33 and the “Human immunoreactive” value is given as “at least one IGRA + donor”.

As to PITKKQLKTMSNYEVIAK [p11], in experiment [2], the “Recognition of HLA class II peptide” value is reported as “not recognized by any subject”.

As to IARYFMVNISQLIGEE [p21], in experiment [2], the “Number of IGRA+ subjects recognizing the peptide” value is 8/56; the “Number of IGRA− subjects recognizing the peptide” value was 3/21; the “Proportion of IGRA+ donors with IFNγ recall response to the peptide, SI cutoff of 2” value is recorded as 14.3%; the “Recall response frequency in IGRA− donors” value came out at 14.3%.

In the case of LKPFHFISSPTRDLQIA [p16], in experiment [1], the “SFU, Mouse 1/3” value was 180; the “SFU, Mouse 2/3” value is listed as 27; the “SFU, Mouse 3/3” value was 19; the “SI (stimulation index), Mouse 1/3” value is listed as 8.94. In experiment [1], the “SI (stimulation index), Mouse 2/3” value was 2.05; the “SI (stimulation index), Mouse 3/3” value amounted to 1.94; the “# of mice responding” value is reported as 1. In experiment [2], the “Highly antigenic / highly reactive peptide in the human cohort” value is “highly reactive” and the “Human immunoreactive” value is “at least one IGRA + donor”.

As to AENVLIIHNKTLAHRYLA [p31], in experiment [1], the “SFU, Mouse 1/3” value was 0; the “SFU, Mouse 2/3” value came to 14; the “SFU, Mouse 3/3” value was 84; the “SI (stimulation index), Mouse 1/3” value was determined as 0.88. In experiment [1], the “SI (stimulation index), Mouse 2/3” value was found to be 1.72; the “SI (stimulation index), Mouse 3/3” value is 4.32; the “# of mice responding” value was found to be 1. Also, the “Highly antigenic / highly reactive peptide in the human cohort” value in experiment [2] is recorded as “highly reactive”.

For the sequence TGEIVKMINQAKQSIYVQG [p32], in experiment [1], the “SFU, Mouse 1/3” value is reported as 64; the “SFU, Mouse 2/3” value is on record as 70; the “SFU, Mouse 3/3” value is reported as 28; the “SI (stimulation index), Mouse 1/3” value was found to be 3.82. Moreover, in experiment [1], the “SI (stimulation index), Mouse 2/3” value is 4.62; the “SI (stimulation index), Mouse 3/3” value is 2.11; the “# of mice responding” value came out at 2. Moreover, the “Human immunoreactive” value in experiment [2] is “at least one IGRA + donor”.

With LSSIIHKLTSFSKTEA [p38], in experiment [2], the “Highly antigenic / highly reactive peptide in the human cohort” value is given as “highly antigenic”.

As for PDYVLNAVNHIRYKP [p14], in experiment [1], the “SFU, Mouse 1/3” value is 157; the “SFU, Mouse 2/3” value is given as 371; the “SFU, Mouse 3/3” value turned out to be 11; the “SI (stimulation index), Mouse 1/3” value was 7.94. In experiment [1], the “SI (stimulation index), Mouse 2/3” value turned out to be 20.21; the “SI (stimulation index), Mouse 3/3” value turned out to be 1.42; the “# of mice responding” value is 2. In experiment [2], the “Highly antigenic / highly reactive peptide in the human cohort” value was “highly reactive; also recorded: highly antigenic”.

For the sequence DHAYKLAVSSTKSMT [p42], the “Donors recognizing peptides recognized solely by past asymptomatic subjects” value in experiment [2] is on record as 3/33.

On to VAKLRGDLSSIIHKL [p37], for which the “Highly antigenic / highly reactive peptide in the human cohort” value in experiment [2] is “highly antigenic”.

Take TPTFVIGNKALTKFGF [p2]: in experiment [1], the “SFU, Mouse 1/3” value is recorded as 120; the “SFU, Mouse 2/3” value is on record as 141; the “SFU, Mouse 3/3” value is 18; the “SI (stimulation index), Mouse 1/3” value was found to be 6.63. Further, in experiment [1], the “SI (stimulation index), Mouse 2/3” value was found to be 8.28; the “SI (stimulation index), Mouse 3/3” value is 1.53; the “# of mice responding” value is given as 2. Further, the “Highly antigenic / highly reactive peptide in the human cohort” value in experiment [2] is “highly reactive”.

As to REAVLFLVTIKELLEDP [p23], in experiment [1], the “SFU, Mouse 1/3” value came out at 69; the “SFU, Mouse 2/3” value worked out at 21; the “SFU, Mouse 3/3” value came out at 63; the “SI (stimulation index), Mouse 1/3” value was 2.30. In experiment [1], the “SI (stimulation index), Mouse 2/3” value was 1.89; the “SI (stimulation index), Mouse 3/3” value came out at 2.47; the “# of mice responding” value was found to be 2. Also, the “Highly antigenic / highly reactive peptide in the human cohort” value in experiment [2] is “highly antigenic”.

As to EHTIVVNASASEAAALQ [p10], in experiment [1], the “SFU, Mouse 1/3” value is 256; the “SFU, Mouse 2/3” value is 82; the “SFU, Mouse 3/3” value turned out to be 43; the “SI (stimulation index), Mouse 1/3” value amounted to 5.80. In addition, in experiment [1], the “SI (stimulation index), Mouse 2/3” value was determined as 4.51; the “SI (stimulation index), Mouse 3/3” value was determined as 2.00; the “# of mice responding” value is recorded as 2. In addition, in experiment [2], the “Donors recognizing peptides recognized only within group C” value was “multiple donors” and the “Human immunoreactive” value was “at least one IGRA + donor”.

Regarding FTFRSQDSRRVQEW [p13], in experiment [2], the “Donors recognizing peptides recognized solely by past asymptomatic subjects” value is on record as 1/33 and the “Human immunoreactive” value was “at least one IGRA + donor”.
